# Key:
# [1] = Raw material stability test versus tegoprazan freebase (60 °C or 90 % RH); assay type: physicochemical
# [2] = in vivo; cited from earlier work
# [3] = Solubility comparative test (Korean Pharmacopoeia 'Solubility'); conditions: solubility of the acid addition salt itself, without conversion to freebase
# Procedure: The measurement was conducted according to the method described under "Solubility" in the General Notices of Appendix 1 of the 12th Edition of the Korean Pharmacopoeia. Each solubility was expressed by measuring the solubility of the acid addition salt itself, without conversion to the tegoprazan freebase.
compound,measurement,setting,value
Cc1nc2cc(C(=O)N(C)C)cc(O[C@H]3CCOc4cc(F)cc(F)c43)c2[nH]1 [Tegoprazan Freebase Crystalline Form A],"change in appearance, 60 °C","[1]; 60 °C, 3 weeks",No change in appearance
same,"change in appearance, 90 % RH","[1]; 90 % RH, 3 weeks",No change in appearance
same,"change in appearance, Initial",[1]; initial,No change in appearance
same,Tmax delayed when administered after a meal compared to before a meal,[2],up to 8 hours
same,Solubility,[3],< 1000 µg/mL

# — patent EP4678639A1, “SALT OF BENZIMIDAZOLE DERIVATIVE” (JW Pharmaceutical Corporation, priority 2023, dated 2024)
